Measurements published in patent EP0464206A1, “DRUG FOR IMPROVING BRAIN FUNCTION” (DAIICHI PHARMACEUTICAL CO., LTD., priority 1989, dated 1990).

What was measured:
Acute toxicity in rats = conditions: in vivo, iv; rat, intravenously injected; read-out: LD₅₀
Experimental: The cAMP derivative of formula (I) and a salt thereof were administered to rats in order to examine the acute toxicities of these compounds.
(§1) DBcAMP was intravenously injected into rats and mice to thereby examine the acute toxicity thereof. As a result, LD₅₀ of this compound to rat was 459 mg/kg while that to mouse was 545 mg/kg.

[1] = tested on: patients, who suffered from cerebrovascular dementia or Alzheimer's type senile dementia with Parkinson's disease as a complication; experiment: Clinical administration of DBcAMP by intravenous drip infusion to dementia patients; format: in vivo; conditions: for Side effect / Progress after administration and evaluation (symptom/ condition): 300 mg/day intravenous drip infusion for 8 hours
Experimental: 300 mg of sodium N⁶-2'-0-dibutyryladenosine-3',5'-cyclic phosphate (hereinafter, abbreviated as DBcAMP) was dissolved in a saline and administered to five patients, who suffered from cerebrovascular dementia or Alzheimer's type senile dementia with Parkinson's disease as a complication, by intravenous drip infusion for approximately 8 hours per day continuously.
These patients gave no response to a call and their intellectual level was decreased. […] Therefore, it was recognized that these patients suffered from serious dementia.

Acute toxicity in mice = conditions: in vivo, iv; mouse, intravenously injected; read-out: LD₅₀
Experimental: as §1

[2] = Test 2: patient five, Cerebrovascular dementia

CCCC(=O)Nc1ncnc2c1ncn2[C@@H]1O[C@@H]2COP(=O)(O)O[C@H]2[C@H]1OC(=O)CCC [DBcAMP, sodium N⁶-2'-0-dibutyryladenosine-3',5'-cyclic phosphate]
LD50 (Acute toxicity in rats): 459 mg/kg
Side effect ([1]; Test 1: patient three, Alzheimer's type dementia): None.
Progress after administration and evaluation (symptom/ condition) [1, 2]: Showed "Yes" or "No" for simple question by shaking head 1 week after the administration. No speech but groan. Remarkable improvement in symptoms caused by a decline in brain function, compared before the administration.
Side effect [1, 2]: None.
Progress after administration and evaluation (symptom/ condition) ([1]; Test 3: patient four, Cerebrovascular dementia (with Parkinson's disease)): Groaned in night from the second day of the administration, after a year's silence. Groaning became larger thereafter. Improvement in various symptoms caused by a decline in brain function.
Side effect ([1]; Test 3: patient four, Cerebrovascular dementia): None.
Progress after administration and evaluation (symptom/ condition) ([1]; Test 4: patient two, Alzheimer's type dementia (with Parkinson's disease)): Answered to call 1 week after the administration. Soliloquized in night. Remarkable improvement in symptoms caused by a decline in brain function.
Side effect ([1]; Test 4: patient two, Alzheimer's type dementia): None.
Side effect ([1]; Test 5: patient one, Cerebrovascular dementia, multiple cerebral infarct): None.
symptoms of the complicated Parkinson's disease ([1]; five patients, 300 mg/day intravenous drip infusion): disappearance of oily skin and reduced myosclerosis
LD50 (Acute toxicity in mice): 545 mg/kg
